What was measured:
[1] = system: Subjects With Active Crohn's Disease With Evidence of Mucosal Ulceration; assay: Study 3 - SES-CD endoscopic scores; format: in vivo, human; conditions: 200 mg, LOCF; for Deep remission (CDAI score < 150 points, SES-CD score ≤ 4, ulcerated subscore ≤ 1 in all 5 segments) / Endoscopic remission (SES-CD % improvement ≤ 4, ulcerated subscore ≤ 1 in all 5 segments) / Endoscopic response (SES-CD % improvement ≥ 50) / Mucosal healing (SES-CD % = 0): 10 weeks
Source text: Double-Blind, Randomized, Placebo-Controlled, Multi-Centre Study to Investigate the Efficacy and Safety of Compound 1 in Subjects With Active Crohn's Disease With Evidence of Mucosal Ulceration. This is a double-blind, randomized, placebo-controlled, multi-centre Phase 2 study to investigate the efficacy and safety of Compound 1 administered once daily for the treatment of active CD with evidence of mucosal ulceration. The pharmacokinetics (including a PK substudy) and pharmacodynamics of Compound 1 and metabolite in CD will also be characterised. A total of 180 eligible subjects will be randomized to receive Compound 1 or placebo in addition to their stable background treatment (eg, corticosteroids, aminosalicylates, or CD-related antibiotics). The study will consist of 2 parts, with total treatment duration of 20 weeks. Randomization in Part 1 will be stratified according the subject's previous anti-TNF exposure/response, CRP level at Screening, and oral corticosteroid use at visit Day −1. After the first 10 weeks of treatment in Part 1, patients will be re-randomized for Part 2 as shown in the diagram below and will be stratified according to the subject's clinical response, previous anti-TNF exposure/response, and oral corticosteroid use at visit Day -1. [table] For the evaluation of disease severity the Crohn's Disease Index of Severity (CDEIS), and the Simple Endoscopic Score for Crohn's Disease (SES-CD) may be used. These are validated scores for the measurement of endoscopic findings, (Sipponen et al, 2010). For the SES-CD, four endoscopic variables in the five segments are scored from 0-3: Variable “presence and size of ulcers” is scored 0 when no ulcers are present, small ulcers (diameter 0.1-0.5 cm) are scored 1, medium-sized ulcers (diameter 0.5-2 cm) 2, and large ulcers (>2 cm) 3. Variable “extent of ulcerated surface” is scored 0 when no ulcers were present, 1 when extent was <10%, 2 when extent is 10%-30%, and 3 when it is >30%. The variable extent of affected surface is scored 0 if none, 1 when <50%, 2 when 50%-75%, and 3 when >75%. The presence and type of narrowings is scored 0 when no narrowings are present, a single passable narrowing is scored 1, multiple passable narrowings are scored 2, and a nonpassable narrowing is scored 3.

[2] = system: Subjects With Active Crohn's Disease With Evidence of Mucosal Ulceration; assay: Study 3 - CRP levels (pharmacodynamics); format: in vivo, human; conditions: 200 mg; week 10; LOCF
Source text: Double-Blind, Randomized, Placebo-Controlled, Multi-Centre Study to Investigate the Efficacy and Safety of Compound 1 in Subjects With Active Crohn's Disease With Evidence of Mucosal Ulceration. This is a double-blind, randomized, placebo-controlled, multi-centre Phase 2 study to investigate the efficacy and safety of Compound 1 administered once daily for the treatment of active CD with evidence of mucosal ulceration. The pharmacokinetics (including a PK substudy) and pharmacodynamics of Compound 1 and metabolite in CD will also be characterised. A total of 180 eligible subjects will be randomized to receive Compound 1 or placebo in addition to their stable background treatment (eg, corticosteroids, aminosalicylates, or CD-related antibiotics). The study will consist of 2 parts, with total treatment duration of 20 weeks. Randomization in Part 1 will be stratified according the subject's previous anti-TNF exposure/response, CRP level at Screening, and oral corticosteroid use at visit Day −1. After the first 10 weeks of treatment in Part 1, patients will be re-randomized for Part 2 as shown in the diagram below and will be stratified according to the subject's clinical response, previous anti-TNF exposure/response, and oral corticosteroid use at visit Day -1. [table] CRP determination is available at Quest Diagnostics, Clinical Trials, Quest House, 125-135 Staines Road, Hounslow, Middlesex, TW3 3JB, United Kingdom under Catalogue n#86140. The determination of CRP is made using Immunoturbidimetric assay for the in vitro quantitative determination of CRP in human serum and plasma on Roche/Hitachi cobas c systems, wherein human CRP agglutinates with latex particles coated with monoclonal anti-CRP antibodies. The aggregates are determined turbidimetrically (Eda et al., 1998; Price et al., 1987). Human serum and plasma samples CRP determination was done on a Roche/Hitachi Cobas c 301 c 501/502 system which automatically calculate the analyte concentration of each sample. Samples containing precipitates are centrifuged before performing the assay. CRP levels are determined as previously described in section 3.6

[3] = Anti-TNF experienced non-responders
[4] = baseline corticosteroid use: with steroids
[5] = baseline corticosteroid use: without steroids

O=C(Nc1nc2cccc(-c3ccc(CN4CCS(=O)(=O)CC4)cc3)n2n1)C1CC1 [Compound 1, cyclopropanecarboxylic acid {5-[4-(1,1-dioxo-thiomorpholin-4-ylmethyl)-phenyl]-[1,2,4]triazolo[1,5-a]pyridin-2-yl}-amide]
Deep remission (CDAI score < 150 points, SES-CD score ≤ 4, ulcerated subscore ≤ 1 in all 5 segments) ([1]; Anti-TNF Naïve): 0%
Endoscopic remission (SES-CD % improvement ≤ 4, ulcerated subscore ≤ 1 in all 5 segments) ([1]; Anti-TNF Naïve): 16%
Endoscopic response (SES-CD % improvement ≥ 50) ([1]; Anti-TNF Naïve): 28%
Mucosal healing (SES-CD % = 0) ([1]; Anti-TNF Naïve): 0%
Deep remission (CDAI score < 150 points, SES-CD score ≤ 4, ulcerated subscore ≤ 1 in all 5 segments) [1, 3]: 6%
Endoscopic remission (SES-CD % improvement ≤ 4, ulcerated subscore ≤ 1 in all 5 segments) [1, 3]: 12%
Endoscopic response (SES-CD % improvement ≥ 50) [1, 3]: 23%
Mucosal healing (SES-CD % = 0) [1, 3]: 1%
Deep remission (CDAI score < 150 points, SES-CD score ≤ 4, ulcerated subscore ≤ 1 in all 5 segments) [1, 4]: 0%
Endoscopic remission (SES-CD % improvement ≤ 4, ulcerated subscore ≤ 1 in all 5 segments) [1, 4]: 12%
Endoscopic response (SES-CD % improvement ≥ 50) [1, 4]: 22%
Mucosal healing (SES-CD % = 0) [1, 4]: 0%
Deep remission (CDAI score < 150 points, SES-CD score ≤ 4, ulcerated subscore ≤ 1 in all 5 segments) [1, 5]: 5%
Endoscopic remission (SES-CD % improvement ≤ 4, ulcerated subscore ≤ 1 in all 5 segments) [1, 5]: 15%
Endoscopic response (SES-CD % improvement ≥ 50) [1, 5]: 28%
Mucosal healing (SES-CD % = 0) [1, 5]: 5%
Deep remission (CDAI score < 150 points, SES-CD score ≤ 4, ulcerated subscore ≤ 1 in all 5 segments) ([1]; overall): 8%
Endoscopic remission (SES-CD % improvement ≤ 4, ulcerated subscore ≤ 1 in all 5 segments) ([1]; overall): 14%
Endoscopic response (SES-CD % improvement ≥ 50) ([1]; overall): 25%
Mucosal healing (SES-CD % = 0) ([1]; overall): 2%
Deep remission (CDAI score < 150 points, SES-CD score ≤ 4, ulcerated subscore ≤ 1 in all 5 segments) ([1]; screening CRP ≤ 10 ml/L): 10%
Endoscopic remission (SES-CD % improvement ≤ 4, ulcerated subscore ≤ 1 in all 5 segments) ([1]; screening CRP ≤ 10 ml/L): 16%
Endoscopic response (SES-CD % improvement ≥ 50) ([1]; screening CRP ≤ 10 ml/L): 23%
Mucosal healing (SES-CD % = 0) ([1]; screening CRP ≤ 10 ml/L): 3%
Deep remission (CDAI score < 150 points, SES-CD score ≤ 4, ulcerated subscore ≤ 1 in all 5 segments) ([1]; screening CRP ≥ 10 mg/L): 0%
Endoscopic remission (SES-CD % improvement ≤ 4, ulcerated subscore ≤ 1 in all 5 segments) ([1]; screening CRP ≥ 10 mg/L): 0%
Endoscopic response (SES-CD % improvement ≥ 50) ([1]; screening CRP ≥ 10 mg/L): 28%
Mucosal healing (SES-CD % = 0) ([1]; screening CRP ≥ 10 mg/L): 0%
SES-CD mean, baseline ([1]; Baseline): 14.2
SES-CD mean CFB, W 10 ([1]; week 10): −2.6
SES-CD mean, W 10 ([1]; week 10): 11.6
Serum CRP mean, % CFB [2]: 53%
Serum CRP mean, CFB [2]: -1.0 mg/L
Serum CRP median, % CFB [2]: −10%
Serum CRP median, CFB [2]: -0.4 mg/L
Serum CRP normalizing high to normal (<0.80 mg/dL), % subjects normalizing [2]: 27%

From US20180200257A1, “METHODS FOR THE TREATMENT OF INFLAMMATORY DISORDERS” (Galapagos NV, priority 2015, published 2018)
